Measurements as given in patent US4404217A, “3-Indolyl alkylene amino propanols and cardiovascular compositions thereof” (C. M. Industries, priority 1979, dated 1983).
Where two headings read alike, the source gives them in different places.

Tests used:
β2 receptors = target: T1, β2 receptors (Rattus norvegicus, UniProt P10608); experiment: Displacement of 3H dihydroalprenolol, plasmic membranes of lungs of rats; type: binding
T1 construct: lungs of rats (β2 receptors); from tissue; host or cells: rat lung plasma membranes
Description: (§1) The binding tests are effected on suspensions of plasmic membranes coming from various organs. The suspensions of membranes are placed in incubation with the tritiated ligand and various concentrations of products to be tested. After incubation, each test is filtered on GFB(Whatman) filter, the filters are dried and introduced into counting flasks. The measurement of the radioactivity is assessed by scintillation in a liquid medium.
(§2) The tests were made on plasmic membranes of hearts of dogs (β1 receptor) and lungs of rats (β2 receptors), in the presence of ^3 H dihydroalprenolol 4×10^-9 M.

platelet aggregation = experiment: Anti-aggregating activity, BORN technique, plasma rich in platelets, ADP; type: cell-based, human; conditions: for IC50: Homo sapiens, Platelet, read-out: concentration for inhibiting by 50% the maximum rate of aggregation; for inhibition of the platelet response with respect to the ADP: human platelet-rich plasma
Description: The anti-aggregating activity of the CM 7743, 7744, 7824, 7854, 7859 and 7874 has been studied according to the BORN technique on plasma rich in platelets of human origin. ADP has been used as indicator of platelet aggregation. […] The required concentration for inhibiting by 50% the maximum rate of aggregation varies from 45 to 100 μM.

α2 receptor = target: T2, α2 receptor (Rattus norvegicus, UniProt P22909); experiment: Displacement of 3H clonidine, plasmic membranes of rat brains; type: binding; conditions: for affinity for the receptor with clonidine (α2): in vitro
T2 construct: plasmic membranes of rat brains; from tissue; host or cells: rat brain plasma membranes
T2 sequence (P22909 1-465): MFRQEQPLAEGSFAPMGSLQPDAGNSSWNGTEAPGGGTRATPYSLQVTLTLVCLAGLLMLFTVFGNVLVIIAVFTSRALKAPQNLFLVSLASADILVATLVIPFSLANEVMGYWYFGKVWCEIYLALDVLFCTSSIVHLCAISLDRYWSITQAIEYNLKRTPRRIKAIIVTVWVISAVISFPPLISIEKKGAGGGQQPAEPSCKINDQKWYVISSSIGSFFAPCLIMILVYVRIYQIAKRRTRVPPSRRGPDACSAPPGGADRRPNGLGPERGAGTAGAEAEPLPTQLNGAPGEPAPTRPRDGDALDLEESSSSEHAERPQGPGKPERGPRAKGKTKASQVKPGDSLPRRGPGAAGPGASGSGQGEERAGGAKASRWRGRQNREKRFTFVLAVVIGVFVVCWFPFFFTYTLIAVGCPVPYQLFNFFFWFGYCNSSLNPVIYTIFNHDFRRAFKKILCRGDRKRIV
Description: as §1
(§3) The tests were made on plasmic membranes of rat brains, in the presence of ^3 H clonidine 1.2×10^-9 M (α2 receptor) and of ^3 H WB4101 (N-[2-(2.6dimethoxyphenoxy)ethyl]1.4benzodioxane-2-methylamine), 0.2×10^-9 M (α1 receptor).

[1] = Cardiac frequency and arterial pressure in the anaesthetized dog after intravenous injection; type: in vivo; conditions: i.v. route, anaesthetised dog
Description: (§4) The dog is anaesthetized using sodium pentobarbital, administered by the IV route at a dose of 30 mg/kg. A cannula placed in the saphenous vein allows the intra-venous injections of the products. The animal is submitted to intubation and is allowed to breathe spontaneously.
(§5) The cardiac frequency and the systemic arterial pressure are studied and the variations of these parameters are observed after intra-venous injection of the product to be tested. Each product is tested with increasing doses.

α1 receptor = experiment: Displacement of 3H WB 4101, plasmic membranes of rat brains; type: binding; conditions: for affinity for the receptor with WB 4101 (α1): in vitro; for EC50: read-out: EC50 of DISPLACEMENT of 3H WB 4101, rat brain membranes, 3H WB4101 0.2×10^-9 M
Description: as §1, §3

α adrenergic receptors = experiment: Antagonism of the effects of noradrenaline (pressure response), anaesthetized dog, IV; type: in vivo; conditions: 50% inhibition of pressure response to noradrenaline
Description: as §4, §5
The antagonism of the products with respect to the vascular effects provoked by the IV administration of noradrenaline on the α adrenergic receptors has been sought. The results presented in Table III are expressed in ID50 : it is the dose (mg/kg) which provokes the inhibition by 50% of the pressure response due to the IV administration of noradrenaline.

[2] = target: T3, β adrenergic receptors (β2) (Canis lupus familiaris, UniProt P54833); experiment: Antagonism of the effects of isoprenaline, hypotension (β2), anaesthetized dog, IV; type: in vivo; conditions: read-out: ID50 ISOPRENALINE β2
T3 construct: The dog is anaesthetized using sodium pentobarbital; from tissue; host or cells: whole anaesthetized dog (vasculature)
Description: as §4, §5
The antagonism of the products with respect to the β stimulant cardio-vascular effects of isoprenaline on the β adrenergic receptors has been sought. […] The last column indicates the cardioselectivity (β1 >β2) or a low cardioselectivity β1 ≥β2, or no cardioselectivity β1 <β2 and β1 =β2.

[3] = target: T4, β adrenergic receptors (β1) (Canis lupus familiaris, UniProt P79148); experiment: Antagonism of the effects of isoprenaline, tachycardia (β1), anaesthetized dog, IV; type: in vivo; conditions: for cardioselectivity β1 - β2 / ED50: dog; for cardioselectivity β1 - β2: isoprenaline antagonism, β1 versus β2; for ED50: read-out: ID50 ISOPRENALINE β1
T4 construct: The dog is anaesthetized using sodium pentobarbital; from tissue; host or cells: whole anaesthetized dog (heart)

β1 receptor = target: T5, β1 receptor (Canis lupus familiaris, UniProt P79148); experiment: Displacement of 3H dihydroalprenolol, plasmic membranes of hearts of dogs; type: binding, dog
T5 construct: plasmic membranes of hearts of dogs (β1 receptor); from tissue; host or cells: dog heart plasma membranes
Description: as §1, §2

[4] = IV, 50% inhibition of isoprenaline hypotension

T1 sequence (P10608 whole entry): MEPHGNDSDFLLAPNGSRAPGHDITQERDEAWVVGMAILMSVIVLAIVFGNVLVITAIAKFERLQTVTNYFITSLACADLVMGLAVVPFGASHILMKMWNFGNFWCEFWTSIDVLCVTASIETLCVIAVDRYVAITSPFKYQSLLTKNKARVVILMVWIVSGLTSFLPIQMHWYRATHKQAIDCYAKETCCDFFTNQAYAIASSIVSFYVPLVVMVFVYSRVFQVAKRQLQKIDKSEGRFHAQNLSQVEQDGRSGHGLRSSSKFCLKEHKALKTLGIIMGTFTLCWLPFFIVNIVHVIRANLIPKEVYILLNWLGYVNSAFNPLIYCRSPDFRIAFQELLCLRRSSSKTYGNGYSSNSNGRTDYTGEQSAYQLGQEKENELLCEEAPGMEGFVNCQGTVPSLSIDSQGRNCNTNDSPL
T5 sequence (P79148 whole entry): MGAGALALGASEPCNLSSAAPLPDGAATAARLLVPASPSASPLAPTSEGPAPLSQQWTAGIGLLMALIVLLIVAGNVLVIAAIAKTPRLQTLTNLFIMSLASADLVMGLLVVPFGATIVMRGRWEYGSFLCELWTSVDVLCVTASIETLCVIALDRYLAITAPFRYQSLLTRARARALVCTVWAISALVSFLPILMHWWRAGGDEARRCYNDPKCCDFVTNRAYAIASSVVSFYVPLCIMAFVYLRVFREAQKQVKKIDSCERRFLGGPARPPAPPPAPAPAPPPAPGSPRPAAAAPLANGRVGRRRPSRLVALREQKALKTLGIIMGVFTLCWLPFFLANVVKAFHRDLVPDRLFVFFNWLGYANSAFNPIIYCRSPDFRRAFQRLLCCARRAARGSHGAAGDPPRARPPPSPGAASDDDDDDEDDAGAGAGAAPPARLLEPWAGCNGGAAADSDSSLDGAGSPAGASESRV
T4 sequence (P79148 whole entry): as above
T3 sequence (P54833 whole entry): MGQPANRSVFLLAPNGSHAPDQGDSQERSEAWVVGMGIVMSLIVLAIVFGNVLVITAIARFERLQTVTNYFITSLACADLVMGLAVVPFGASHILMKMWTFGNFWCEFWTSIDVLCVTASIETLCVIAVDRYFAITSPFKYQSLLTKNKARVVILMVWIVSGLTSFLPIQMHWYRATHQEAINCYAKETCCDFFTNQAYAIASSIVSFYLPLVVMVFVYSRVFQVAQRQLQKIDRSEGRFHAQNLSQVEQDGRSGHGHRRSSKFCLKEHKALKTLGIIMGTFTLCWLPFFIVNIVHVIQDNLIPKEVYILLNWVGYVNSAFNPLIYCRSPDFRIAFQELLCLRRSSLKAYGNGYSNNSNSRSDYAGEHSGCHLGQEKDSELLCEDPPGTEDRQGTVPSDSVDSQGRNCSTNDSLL

EC50 (β2 receptors; rat lung membranes, 3H dihydroalprenolol 4×10^-9 M)	EC50 (α2 receptor; rat brain membranes, 3H clonidine 1.2×10^-9 M)	ED50 ([3]; IV, 50% inhibition of isoprenaline tachycardia)	EC50 (β1 receptor; dog heart membranes, 3H dihydroalprenolol 4×10^-9 M)	SMILES	EC50 (β2 receptors)	IC50 (platelet aggregation)	inhibition of the platelet response with respect to the ADP (platelet aggregation)	affinity for the receptor with clonidine (α2) (α2 receptor)	reduction in the peripheral arterial pressure [1]	affinity for the receptor with WB 4101 (α1) (α1 receptor)	EC50 (α1 receptor)	ID50 NORADRENALINE α (α adrenergic receptors)	ED50 ([2]; iv)	cardioselectivity β1 - β2 ([3]; IV)	ED50 ([3]; iv)	EC50 (β1 receptor)	EC50 (α2 receptor)	ED50 [2, 4]	cardioselective in vivo (selectively inhibit the cardiac receptors) ([3]; test with isoprenaline)
				CC(Cc1c[nH]c2ccccc12)NCC(O)COc1ccccc1C#N (stereo not drawn) [compound 7824]	10 nM	45 to 100 µM	inhibited the platelet response	no affinity	reduction in the peripheral arterial pressure	have an affinity	110 nM	1 mg/kg	≥ 0.3 mg/kg	β1 ≥ β2 (low cardioselectivity β1 ≥β2)	0.3 mg/kg	13.5 nM			
				Cc1ccccc1OCC(O)CNC(C)Cc1c[nH]c2ccccc12 (stereo not drawn) [compound 7744]	52 nM	45 to 100 µM	inhibited the platelet response		reduction in the peripheral arterial pressure	have an affinity	500 nM	0.1 to 1 mg/kg		β1 > β2 (cardioselectivity (β1 >β2))	0.1 mg/kg	31 nM	20.5 nM	≥ 0.3 mg/kg	cardioselective in vivo
2000 nM	29.5 nM	3 mg/kg	2050 nM	Cc1ccccc1OC[C@H](O)CN[C@H](CO)Cc1c[nH]c2ccccc12 [compound 7903]				no affinity	reduction in the peripheral arterial pressure		1.9 nM	3 mg/kg		β1 < β2 (no cardioselectivity β1 <β2)				1 mg/kg	
				CC(Cc1c[nH]c2ccccc12)NCC(O)COc1ccccc1Cl (stereo not drawn) [compound 7806]	12 nM			no affinity	reduction in the peripheral arterial pressure	have an affinity	310 nM	0.3 mg/kg	≥ 0.1 mg/kg		0.3 mg/kg	27.5 nM	12 nM		
				CC(Cc1c[nH]c2ccccc12)NCC(O)COc1cccc2[nH]ccc12 (stereo not drawn) [compound 7874]	8.2 nM	45 to 100 µM	inhibited the platelet response		reduction in the peripheral arterial pressure	have an affinity	215 nM	> 0.03 mg/kg		β1 ≥ β2 (low cardioselectivity β1 ≥β2)	0.01 mg/kg	4 nM	20 nM	0.01 to 0.03 mg/kg	
